The subject of assay [1] is sub-genomic HCV NS3-NS5B replicon of genotype 1a in Huh-7 cells. The assay can be described thus: Replicon Luciferase Cell Based Assay, genotype 1a. Set-up: species or system HCV genotype 1a. The note with it: Hepatitis C virus, Huh-7, 48 hours. As for the experimental part:
(§1) A 10 mM stock solution in DMSO of each test compound was further diluted in DMSO in the first row of a 384-well, V-bottom microplate, to give 100 times the top concentration of the required dilution series. Dilutions of compound were prepared in 1:3 serial dilutions from the first row onwards robotically. A robot was also used to transfer 0.5 μL volumes from each dilution well into wells of white 384-well assay plates (Nunc #164610). Control wells received 0.5 μL of DMSO alone. Plates were made in duplicate for measuring HCV replication and cytotoxicity in the replicon cell lines.
(§2) Suspensions were prepared from cultures of Huh-7 cells stably transfected with sub-genomic HCV NS3—NS5B replicons of either genotype 1b (the ET subline described by Pietschmann, T., Lohmann, V., Kaul, A., Krieger, N., Rinck, G., Rutter, G., Strand, D. & Bartenschlager, R., Journal of Virology, 2002, 76, 4008-4021) or genotype 1a linked to a firefly luciferase reporter gene. Monolayers nearing confluency were stripped from growth flasks with versene-trypsin solution and the cells re-suspended in assay medium comprising DMEM (Invitrogen #11965-092) supplemented with 5% v/v foetal calf serum, 1% v/v non-essential amino acids solution, 100 units/ml penicillin, 100 μg/ml streptomycin and 2 mM GlutaMAX-1. 50 μL of suspension containing 5,000 cells of either genotype 1b or genotype 1a luciferase replicon were added to all wells, except medium controls, of the assay plate with a Multidrop Combi (Thermo Scientific Corporation) and the plate incubated for 48 hours at 37° C. in a 5% CO2 atmosphere. A solution of Steady-Glo cytolytic buffer/luciferase substrate (Promega #E2550) was prepared according to the manufacturer's instructions, and 20 μL were added to each well with a Multidrop Combi. To measure cytotoxicity, a solution of CellTiter-Glo Luminescent Cell Viability Assay reagent (Promega #G7573) was prepared according to the manufacturer's instructions, and 20 ul were added to each well with a Multidrop Combi. The plates were then read for luminescence on an Envision Multilabel Reader (Perkin Elmer)
(§3) Potency: The luminescence values from all compound-free wells containing cells were averaged to obtain a positive control value. The mean luminescence value from the compound-free wells that had received no cells was used to provide the negative (background) control value. After the subtraction of the mean background from all values, the readings from wells at each compound concentration were expressed as a percentage of the positive control signal. The quantifiable and specific reduction of luciferase signal in the presence of a drug is a direct measure of replicon inhibition. The BioAssay application and XC50 module were used to plot the curve of percentage inhibition against compound concentration and derive the 50% inhibitory concentration (IC50) for the compound.
In general terms: A replicon is a self-replicating genome or part of one, used to study replication in cells.

In assay [2] the test system is sub-genomic HCV NS3-NS5B replicon of genotype 1b (ET subline) in Huh-7 cells. Nature of the assay: Replicon Luciferase Cell Based Assay, genotype 1b. Set-up: species or system HCV genotype 1b. The conditions noted are these: Hepatitis C virus, Huh-7, 48 h, read-out: Genotype 1b (IC50 μM). As for the experimental part:
as §1, §2, §3

As usually defined, the IC50 is the concentration at which inhibition is half-maximal. For `COc1ccc2c(O[C@@H]3C[C@H]4C(=O)N[C@]5(C(=O)NS(=O)(=O)C6CC6)C[C@H]5/C=C\CCCCC[C@H](NC(=O)Nc5ccccc5)C(=O)N4C3)cc(-c3nc(C(C)C)cs3)nc2c1C` [Example 1, (2R,6S,13aS,14aR,16aS)-N-(cyclopropylsulfonyl)-2-{[8-methyl-2-[4-(1-methylethyl)-1,3-thiazol-2-yl]-7-(methyloxy)-4-quinolinyl]oxy}-5,16-dioxo-6-{[(phenylamino)carbonyl]amino}-1,2,3,6,7,8,9,10,11,13a,14,15,16,16a-tetradecahydrocyclopropa[e]pyrrolo[1,2-a][1,4]diazacyclopentadecine-14a(5H)-carboxamide], the IC50 in assay [1] and in assay [2] was less than 0.01 µM in each case.
Regarding `C=C1CCN(C(=O)N[C@H]2CCCCC/C=C\[C@@H]3C[C@@]3(C(=O)NS(=O)(=O)C3CC3)NC(=O)[C@@H]3C[C@@H](Oc4cc(-c5nc(C6CC6)cs5)nc5c(Cl)c(OC)ccc45)CN3C2=O)CC1` [Example 27, (2R,6S,13aS,14aR,16aS,Z)-2-(8-chloro-2(4-cyclopropylthiazol-2-yl)-7-methoxyquinolin-4-yloxy)-N-(cyclopropylsulfonyl)-6-(4-methylenepiperidine-1-carboxamido)-5,16-dioxo-1,2,3,5,6,7,8,9,10,11,13a,14,14a,15,16,16a-hexadecahydrocyclopropa[e]pyrrolo[1,2-a][1,4]diazacyclopentadecine-14a-carboxamide], the IC50 in assay [1] and in assay [2] was less than 0.01 µM each time.
In the case of `COc1ccc2c(O[C@@H]3C[C@H]4C(=O)N[C@]5(C(=O)NS(=O)(=O)C6CC6)C[C@H]5/C=C\CCCCC[C@H](NC(=O)N(C)C)C(=O)N4C3)cc(-c3nc(C4CC4)cs3)nc2c1C` [Example 6, (2R,6S,13aS,14aR,16aS)-N-(cyclopropylsulfonyl)-2-{[2-(4-cyclopropyl-1,3-thiazol-2-yl)-8-methyl-7-(methyloxy)-4-quinolinyl]oxy}-6-{[(dimethylamino)carbonyl]amino}-5,16-dioxo-1,2,3,6,7,8,9,10,11,13a,14,15,16,16a-tetradecahydrocyclopropa[e]pyrrolo[1,2-a][1,4]diazacyclopentadecine-14a(5H)-carboxamide], the 50% inhibitory concentration (IC50) in assay [1] and in assay [2] was less than 0.01 µM each time.
On to `COc1ccc2c(O[C@@H]3C[C@H]4C(=O)N[C@]5(C(=O)NS(=O)(=O)C6CC6)C[C@H]5/C=C\CCCCC[C@H](NC(=O)N(C)C(C)C)C(=O)N4C3)cc(-c3nc(C4CC4)cs3)nc2c1C` [Example 7, (2R,6S,13aS,14aR,16aS)-N-(cyclopropylsulfonyl)-2-{[2-(4-cyclopropyl-1,3-thiazol-2-yl)-8-methyl-7-(methyloxy)-4-quinolinyl]oxy}-6-({[methyl(1-methylethyl)amino]carbonyl}amino)-5,16-dioxo-1,2,3,6,7,8,9,10,11,13a,14,15,16,16a-tetradecahydrocyclopropa[e]pyrrolo[1,2-a][1,4]diazacyclopentadecine-14a(5H)-carboxamide], for which the IC50 in assay [1] and in assay [2] was less than 0.01 µM each time.
With `COc1ccc2c(O[C@@H]3C[C@H]4C(=O)N[C@]5(C(=O)NS(=O)(=O)C6CC6)C[C@H]5/C=C\CCCCC[C@H](NC(=O)N5C[C@@H](C)O[C@@H](C)C5)C(=O)N4C3)cc(-c3nc(C(C)C)cs3)nc2c1C` [Example 11, (2R,6S,13aS,14aR,16aS)-N-(cyclopropylsulfonyl)-6-({[(2R,6S)-2,6-dimethyl-4-morpholinyl]carbonyl}amino)-2-{[8-methyl-2-[4-(1-methylethyl)-1,3-thiazol-2-yl]-7-(methyloxy)-4-quinolinyl]oxy}-5,16-dioxo-1,2,3,6,7,8,9,10,11,13a,14,15,16,16a-tetradecahydrocyclopropa[e]pyrrolo[1,2-a][1,4]diazacyclopentadecine-14a(5H)-carboxamide], the IC50 in assay [1] and in assay [2] was less than 0.01 µM throughout.
In the case of `CCCN(CC1CC1)C(=O)N[C@H]1CCCCC/C=C\[C@@H]2C[C@@]2(C(=O)NS(=O)(=O)C2CC2)NC(=O)[C@@H]2C[C@@H](Oc3cc(-c4nc(C(C)C)cs4)nc4c(C)c(OC)ccc34)CN2C1=O` [Example 19, (2R,6S,13aS,14aR,16aS)-6-({[(cyclopropylmethyl)(propyl)amino]carbonyl}amino)-N-(cyclopropylsulfonyl)-2-{[8-methyl-2-[4-(1-methylethyl)-1,3-thiazol-2-yl]-7-(methyloxy)-4-quinolinyl]oxy}-5,16-dioxo-1,2,3,6,7,8,9,10,11,13a,14,15,16,16a-tetradecahydrocyclopropa[e]pyrrolo[1,2-a][1,4]diazacyclopentadecine-14a(5H)-carboxamide], the IC50 in assay [1] and in assay [2] was less than 0.01 µM each time.
As to `COc1ccc2c(O[C@@H]3C[C@H]4C(=O)N[C@]5(C(=O)NS(=O)(=O)C6CC6)C[C@H]5/C=C\CCCCC[C@H](NC(=O)N5CC(F)(F)C5)C(=O)N4C3)cc(-c3nc(C(C)C)cs3)nc2c1C` [Example 35, (2R,6S,13aS,14aR,16aS,Z)-N-(cyclopropylsulfonyl)-6-(3,3-difluoroazetidine-1-carboxamido)-2-(2-(4-isopropylthiazol-2-yl)-7-methoxy-8-methylquinolin-4-yloxy)-5,16-dioxo-1,2,3,5,6,7,8,9,10,11,13a,14,14a,15,16,16a-hexadecahydrocyclopropa[e]pyrrolo[1,2-a][1,4]diazacyclopentadecine-14a-carboxamide], the IC50 in assay [1] and in assay [2] was less than 0.01 µM each time.
With `COc1ccc2c(O[C@@H]3C[C@H]4C(=O)N[C@]5(C(=O)NS(=O)(=O)C6CC6)C[C@H]5/C=C\CCCCC[C@H](NC(=O)N(C(C)C)C(C)C)C(=O)N4C3)cc(-c3nc(C4CC4)cs3)nc2c1C` [Example 8, (2R,6S,13aS,14aR,16aS)-6-({[bis(1-methylethyl)amino]carbonyl}amino)-N-(cyclopropylsulfonyl)-2-{[2-(4-cyclopropyl-1,3-thiazol-2-yl)-8-methyl-7-(methyloxy)-4-quinolinyl]oxy}-5,16-dioxo-1,2,3,6,7,8,9,10,11,13a,14,15,16,16a-tetradecahydrocyclopropa[e]pyrrolo[1,2-a][1,4]diazacyclopentadecine-14a(5H)-carboxamide], the concentration for half-maximal inhibition (IC50) in assay [1] and in assay [2] was less than 0.01 µM each time.
For `CCN(CC)C(=O)N[C@H]1CCCCC/C=C\[C@@H]2C[C@@]2(C(=O)NS(=O)(=O)C2CC2)NC(=O)[C@@H]2C[C@@H](Oc3cc(-c4nc(C(F)(F)F)cs4)nc4c(Cl)c(OC)ccc34)CN2C1=O` [Example 29, Cycloprobanesulfonic acid [18-[8-chloro-7-methoxy-2-(4-trifluoromethyl-thiazol-2-yl)-quinolin-4-yloxy]-14-(3,3-diethyl-ureido)-2,15-dioxo-3,16-diaza-tricyclo[14.3.0.04,6]nonadec-7-ene-4-carbonyl]-amide], the IC50 in assay [1] and in assay [2] was less than 0.01 µM in each case.
